*1 amine or outer side, *2 acyl side, *3 side chain or, on linkers, in order; H or OH if unused. Where a SMILES comes first, the peptide text is derived from it. Bridges are numbered along the chain shown (N, C = ends). [ ]: non-standard residue; d: D form. Oic = O=C(O)[C@@H]1C[C@@H]2CCCC[C@@H]2N1; X5 = NCCC[C@H](N[*:1])C(=O)NC(=O)[*:2]; Arg(Me) = CNC(=N)NCCC[C@H](N)C(=O)O; Trx = NC[C@H]1CC[C@H](C(=O)O)CC1; tBuAla = CC(C)(C)C[C@H](N)C(=O)O; Pen = CC(C)(S)[C@H](N)C(=O)O; NMeC = CN[C@@H](CS)C(=O)O; Orn = NCCC[C@H](N)C(=O)O; Dap = NC[C@H](N)C(=O)O; Ahx = NCCCCCC(=O)O

For one experiment, the target named is human MASP1 (Homo sapiens (Human), UniProt P48740). Description: Biochemical human MASP1 assay (FRET substrate). As to conditions: Average IC50; recombinant human MASP1; read-out: human MASP1 IC50. Summed up:
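Recombinant human MASP1 (aa 297-699, C-terminal His tag, HEK293-expressed, Ni-NTA purified) diluted to 20 nM in 50 mM HEPES pH 8,0, 100 mM NaCl, 0,01% CHAPS, 0.5 mM glutathione, preincubated with compound in DMSO; reaction started with 20 μM ABZ/Dnp FRET substrate solution. Fluorescence (ex 320/em 420 nm) after 60-120 min at 32 C; IC50 from % inhibition.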

For another experiment, the target named is human MASP2 (Homo sapiens (Human), UniProt O00187). Description: Biochemical human MASP2 assay (FRET substrate). As to conditions: Average IC50; recombinant human MASP2; read-out: human MASP2 IC50. The essentials:
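Mature recombinant human MASP2, expressed in HEK293 and purified by Ni-NTA affinity, was reacted with a DABCYL FRET peptide substrate (added as a 60 μM solution) for 60-120 min at 32 C. Fluorescence increase was read at ex 340/em 490 nm; IC50 was derived from % inhibition versus compound concentration.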

In experiment [1] the test system is Human C3-DEPOSITION SERUM. Description: C3 deposition assay, human serum on mannan-coated plates. The following applies: Average IC50, read-out: Human C3-DEPOSITION SERUM IC50. The class given is biochemical. Here is the method:
3. C3 Deposition Assay (Human, Rat, Mouse, Dog, Pig))
The C3 deposition assay was conducted essentially as described (reference). Multiwell plates (Greiner-Nunc 384 Maxi Sorp #464718) were coated over night with Mannan from Saccharomyces cerevisiae (Sigma M7504, 10 μg/mL in 0.05 M carbonate-bicarbonate buffer, pH 9.6) at 4° C. Wells were washed three times with TBS and subsequently incubated for 2 hours with 50 μL of 1% bovine serum albumin (BSA) in Tris-buffered saline (TBS) at 37° C. in order to block non-specific binding. After this step and each of the following incubation steps wells were washed three times with C3 wash buffer (TBS; 0.05% Tween 20; 5 mM CaCl2). […] When appropriately developed the color reaction was stopped by addition of 25 μL of stop solution (Sigma S5814) and quantified on a photometer by measuring absorption at a wavelength of 450 nm. Antibodies were diluted in C3 wash buffer supplemented with 0.5% BSA.

Chain of human MASP2 (O00187 other isoform, or with tags, fused parts or gaps): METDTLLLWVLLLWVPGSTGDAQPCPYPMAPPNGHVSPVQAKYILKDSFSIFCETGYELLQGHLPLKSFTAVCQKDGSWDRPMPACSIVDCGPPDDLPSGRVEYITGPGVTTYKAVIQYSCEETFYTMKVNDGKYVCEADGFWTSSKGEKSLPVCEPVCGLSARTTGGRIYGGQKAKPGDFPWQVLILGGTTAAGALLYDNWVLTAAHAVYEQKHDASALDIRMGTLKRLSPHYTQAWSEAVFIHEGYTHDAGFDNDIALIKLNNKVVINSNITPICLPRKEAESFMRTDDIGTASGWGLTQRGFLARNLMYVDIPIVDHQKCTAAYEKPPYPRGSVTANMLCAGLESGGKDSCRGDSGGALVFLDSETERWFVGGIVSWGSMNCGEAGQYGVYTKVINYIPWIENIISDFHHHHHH
Chain of human MASP1 (P48740 other isoform, or with tags, fused parts or gaps): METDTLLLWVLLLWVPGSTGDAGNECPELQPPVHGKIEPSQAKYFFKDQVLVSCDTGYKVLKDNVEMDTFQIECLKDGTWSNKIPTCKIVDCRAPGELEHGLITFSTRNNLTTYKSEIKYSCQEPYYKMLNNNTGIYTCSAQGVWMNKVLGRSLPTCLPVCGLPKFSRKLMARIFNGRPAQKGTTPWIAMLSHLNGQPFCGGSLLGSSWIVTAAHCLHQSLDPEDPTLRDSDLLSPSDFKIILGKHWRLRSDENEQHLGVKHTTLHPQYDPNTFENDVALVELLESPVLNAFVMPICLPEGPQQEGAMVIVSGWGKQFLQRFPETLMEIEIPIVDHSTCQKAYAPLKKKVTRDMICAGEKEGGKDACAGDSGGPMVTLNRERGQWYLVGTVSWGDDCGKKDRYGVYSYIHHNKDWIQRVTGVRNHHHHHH

In general, IC50 refers to the concentration at which inhibition is half-maximal. Consider `CC[C@H](C)[C@@H]1NC(=O)CNC(=O)[C@H]2CC[C@@H](CC2)CNC(=O)CNC(=O)C[C@@H](C(N)=O)NC(=O)[C@@H]2CCCN2C(=O)[C@H]([C@@H](C)CC)NC(=O)[C@@H]2CSSC[C@H](NC1=O)C(=O)N[C@@H](CO)C(=O)N[C@@H](CCCNC(=N)N)C(=O)N[C@@H](CO)C(=O)N[C@@H](CC(C)(C)C)C(=O)N1CCC[C@H]1C(=O)N1CCC[C@H]1C(=O)N[C@@H]([C@@H](C)CC)C(=O)N2C` [Example 69, (1R,4S,10S,13S,21S,24S,30S,33R,36S,39S,42S,45S,51S,57S,60S)-4,30,60-tri[(2S)-butan-2-yl]-39-(3-carbamimidamidopropyl)-45-(2,2-dimethylpropyl)-36,42-bis(hydroxymethyl)-62-methyl-2,5,11,15,18,25,28,31,34,37,40,43,46,52,58,61-hexadecaoxo-64,65-dithia-3,6,12,16,19,26,29,32,35,38,41,44,47,53,59,62-hexadecaazahexacyclo[31.29.4.2^21,240.0^6,100.0^47,510.0^53,57]octahexacontane-13-carboxamide] (G[Trx]GICSRS[tBuAla]PPI[NMeC]IPD-NH2; disulfide 5-13; lactam N-16), for which the IC50 stood at 20 nM on human MASP1, 190 nM at human MASP2 and 364 nM in experiment [1].
`CC[C@H](C)[C@@H]1NC(=O)[C@H](CN)NC(=O)[C@@H]2CCCN2C(=O)[C@H]([C@@H](C)CC)NC(=O)[C@H]2NC(=O)[C@H]([C@@H](C)CC)NC(=O)[C@@H]3C[C@@H]4CCCC[C@@H]4N3C(=O)[C@H]3CCCN3C(=O)[C@H](CC(C)C)NC(=O)[C@H](CO)NC(=O)[C@H](CCCNC(=N)N)NC(=O)[C@H](CO)NC(=O)[C@H](CSSC2(C)C)NC1=O` [Example 87] (cyclo(CSRSL[dP][Oic]I[Pen]IP[Dap]I); disulfide 1-9): the concentration for half-maximal inhibition (IC50) on human MASP1 was 46 nM; on human MASP2, 700 nM; in experiment [1], 78.6 nM.
Take `CC[C@H](C)[C@@H]1NC(=O)[C@H](C)NC(=O)CCCCCNC(=O)[C@H](CC(=O)O)NC(=O)[C@@H]2CCCN2C(=O)[C@H]([C@@H](C)CC)NC(=O)[C@@H]2CSSC[C@H](NC1=O)C(=O)N[C@@H](CO)C(=O)N[C@@H](CCCNC(=N)N)C(=O)N[C@@H](CO)C(=O)N[C@@H](CC(C)(C)C)C(=O)N1CCC[C@H]1C(=O)N1CCC[C@H]1C(=O)N[C@@H]([C@@H](C)CC)C(=O)N2C` [Example 32] (cyclo(AICSRS[tBuAla]PPI[NMeC]IPD[Ahx]); disulfide 3-11): the IC50 at human MASP1 was 22 nM; on human MASP2 it was 63.5 nM; in experiment [1] it was 121 nM.
For `CC[C@H](C)[C@@H]1NC(=O)[C@H](C)NC(=O)[C@@H](N)CCCNC(=O)C[C@@H](C(N)=O)NC(=O)[C@@H]2CCCN2C(=O)[C@H]([C@@H](C)CC)NC(=O)[C@H]2NC(=O)[C@H]([C@@H](C)CC)NC(=O)[C@@H]3CCCN3C(=O)[C@@H]3CCCN3C(=O)[C@H](CC(C)(C)C)NC(=O)[C@H](CO)NC(=O)[C@H](CCCNC(=N)N)NC(=O)[C@H](CO)NC(=O)[C@H](CSSC2(C)C)NC1=O` [Example 61] (H-[Orn]AICSRS[tBuAla]PPI[Pen]IPD-NH2; lactam 1-15; disulfide 4-12), in that order: 3.1 nM, 310 nM and 23.4 nM.
Regarding `CC[C@H](C)[C@@H]1NC(=O)NC(=O)[C@H](CCCN)NC(=O)[C@@H]2CCCN2C(=O)[C@H]([C@@H](C)CC)NC(=O)[C@H]2NC(=O)[C@H]([C@@H](C)CC)NC(=O)[C@@H]3CCCN3C(=O)[C@@H]3CCCN3C(=O)[C@H](CC(C)(C)C)NC(=O)[C@H](CO)NC(=O)[C@H](CCCNC(=N)NC)NC(=O)[C@H](CO)NC(=O)[C@H](CSSC2(C)C)NC1=O` [Example 96] (cyclo([Arg(Me)]S[tBuAla]PPI[Pen]IP[X5]ICS); disulfide 7-12), the figures for the concentration for half-maximal inhibition (IC50) (at human MASP1; at human MASP2; in experiment [1]) were 23 nM, 400 nM and 103 nM, respectively.
Take `CC[C@H](C)[C@@H]1NC(=O)[C@@H]2CCCN2C(=O)[C@H]([C@@H](C)CC)NC(=O)[C@H]2NC(=O)[C@H]([C@@H](C)CC)NC(=O)[C@@H]3CCCN3C(=O)[C@@H]3CCCN3C(=O)[C@H](CC(C)(C)C)NC(=O)[C@H](CO)NC(=O)[C@H](CCCNC(=N)N)NC(=O)[C@H](CO)NC(=O)[C@H](CSSC2(C)C)NC1=O` [Example 88, N-{3-[(6S,9S,12S,15S,18R,21S,23aS,29S,32R,35S,37aS,42aS)-21,29,35-tri[(2S)-butan-2-yl]-6-(2,2-dimethylpropyl)-9,15-bis(hydroxymethyl)-43,43-dimethyl-5,8,11,14,17,20,23,28,31,34,37,42-dodecaoxotetracontahydro-1H,5H-18,32-(methanodithiomethano)tripyrrolo[1,2-a:1′,2′-d:1″,2″-p][1,4,7,10,13,16,19,22,25,28,31,34]-dodecaazacyclohexatriacontin-12-yl]propyl}guanidine hydrogen chloride] (cyclo(CSRS[tBuAla]PPI[Pen]IPI); disulfide 1-9): the half-inhibitory concentration (IC50) stood at 1000 nM on human MASP1, 1000 nM at human MASP2 and 50000 nM in experiment [1].
Regarding `CC[C@H](C)[C@@H]1NC(=O)[C@H]2NC(=O)[C@H]([C@@H](C)CC)NC(=O)[C@@H]3CCCN3C(=O)[C@@H]3CCCN3C(=O)[C@H](CC(C)(C)C)NC(=O)[C@H](CO)NC(=O)[C@H](CCCNC(=N)N)NC(=O)[C@H](CO)NC(=O)[C@H](CSSC2(C)C)NC(=O)[C@H]([C@@H](C)CC)NC(=O)[C@@H](N)CCCCNC1=O` [Example 67, N-{3-[(5aS,11S,14S,17S,20S,23R,26S,29S,36S,39R,42S,44aS)-29-amino-26,36,42-tri[(2S)-butan-2-yl]-11-(2,2-dimethylpropyl)-14,20-bis(hydroxymethyl)-45,45-dimethyl-5,10,13,16,19,22,25,28,35,38,41,44-dodecaoxodotetracontahydro-1H,5H-23,39-(methanodithiomethano)dipyrrolo[2,1-1:2′,1′-o][1,4,7,10,13,16,19,22,25,28,31,34]dodecaazacyclotetracontin-17-yl]propyl}guanidine] (H-KICSRS[tBuAla]PPI[Pen]I; lactam 1-C; disulfide 3-11), the 50% inhibitory concentration (IC50) on human MASP1 worked out at 3.25 nM; at human MASP2 it was 150 nM; in experiment [1] it was 19.1 nM.
`CC[C@H](C)[C@@H]1NC(=O)[C@H](C)NC(=O)CCCCCNC(=O)C[C@@H](C(N)=O)NC(=O)[C@@H]2CCCN2C(=O)[C@H]([C@@H](C)CC)NC(=O)[C@H]2NC(=O)[C@H]([C@@H](C)CC)NC(=O)[C@@H]3C[C@@H]4CCCC[C@@H]4N3C(=O)[C@H]3CCCN3C(=O)[C@H](CC(C)C)NC(=O)[C@H](CO)NC(=O)[C@H](CCCNC(=N)N)NC(=O)[C@H](CO)NC(=O)[C@H](CSSC2(C)C)NC1=O` [Example 43]: the values for the half-inhibitory concentration (IC50) (at human MASP1; at human MASP2; in experiment [1]) were 6.7 nM, 120 nM and 28.2 nM, respectively.

Values taken from patent US20240010684A1, “MASP INHIBITORY COMPOUNDS AND USES THEREOF” (BAYER AKTIENGESELLSCHAFT, priority 2020, published 2024).
